Reference: patent US6908745B2, “Gamma sterilizable culture medium for the identification of yeasts and fungi” (Biotest AG, priority 2001, dated 2005)

Test system: bacteria
Test: Antibacterial effect of antibiotics after γ-radiation
Details: γ-radiation with 25 kGray
Protocol: In the pharmaceuticals industry are sought γ-sterilized media for use in clean room areas and isolators. These clean room areas must be monitored for microbial contamination, and the product (that is, the microbiological nutrient medium) itself, with which this monitoring is carried out, should not introduce any contamination, but be sterile. The microbiological media are not completely sterile after autoclaving and filling into, for example, Petri dishes or other agar carriers, but have contamination rates in the order of magnitude of 0.1 to approx. 1%. Only as a result of an additional γ-sterilization (or β-sterilization) with high-energy radiation are killed the residual existing contaminations and a sterile product is obtained. However, many antibiotics are destroyed as a result of the γ-sterilization, so that afterward in selective media for yeasts and fungi whose selectivity is based on the addition of antibiotics, this selectivity no longer exists.

| Compound | antibacterial effect after γ-radiation |
| --- | --- |
| O=C(N[C@H](CO)[C@H](O)c1ccc([N+](=O)[O-])cc1)C(Cl)Cl [chloramphenicol] | completely destroyed |
| penicillin | essentially reduced |
